The values that follow come from PubChem BioAssay (NCI).

Test systems include A549 NSCLC; BT-549 breast; CCRF-CEM leukemia; MDA-MB-231 breast; OVCAR-3 ovarian; SF-268 CNS; SK-MEL-5 melanoma; SNB-19 CNS; SR leukemia; UO-31 renal.
Holding throughout (test): NCI tumour cell line growth inhibition, 48 h

“And” between values parts separate entries of the source, which are not always exact repeats. Equal entries are not always repeated.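 48-hour exposure; five concentrations; linearly interpolated endpoints. At the GI50, growth is halved. TGI: concentration producing complete growth inhibition.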

`Cc1c(O)cccc1C(=O)N[C@@H](CSc1ccccc1)[C@H](O)CN1C[C@H]2CCCC[C@H]2C[C@H]1C(=O)NC(C)(C)C`: the GI50 was 3.01 µM and 4.94 µM in the experiment with A549 NSCLC; 4.97 µM and 3.88 µM in the experiment with BT-549 breast; 2.76 µM and 8.59 µM in the experiment on CCRF-CEM leukemia; 3.24 µM and 5.92 µM in the experiment on MDA-MB-231 breast; 2.62 µM and 5.24 µM with OVCAR-3 ovarian; 4.5 µM and 5.97 µM in the experiment with SF-268 CNS. In addition, the GI50 is 3.12 µM and 5.11 µM in the experiment with SK-MEL-5 melanoma; 3.17 µM and 6.96 µM in the experiment on SNB-19 CNS; 2.21 µM in the experiment with SR leukemia; 3.45 µM and 3.81 µM with UO-31 renal. Also, the TGI was 10.8 µM and 22.8 µM with A549 NSCLC; 21.1 µM and 17.1 µM with BT-549 breast; 6.83 µM and > 27 µM in the experiment on CCRF-CEM leukemia; 11.5 µM and 13.7 µM in the experiment with MDA-MB-231 breast; 9.46 µM and 16.2 µM in the experiment with OVCAR-3 ovarian; 15.8 µM and 26 µM in the experiment with SF-268 CNS. The TGI is 13.5 µM and 11.7 µM in the experiment with SK-MEL-5 melanoma; 16.1 µM and > 43.8 µM with SNB-19 CNS; 5.48 µM in the experiment with SR leukemia; 16.4 µM and 19.5 µM in the experiment with UO-31 renal.

For the compound `Cc1[nH]c(C(=O)Nc2cccc(OC3CCNCC3)c2)c(Cl)c1Cl`, the GI50 is 2.04 µM in the experiment on A549 NSCLC; 4.65 µM in the experiment on BT-549 breast; 1.92 µM with CCRF-CEM leukemia; 1.74 µM in the experiment with MDA-MB-231 breast; 1.97 µM in the experiment on OVCAR-3 ovarian; 1.77 µM with SF-268 CNS. Further, the GI50 is 1.78 µM in the experiment on SK-MEL-5 melanoma, 2.11 µM with SNB-19 CNS, 2.02 µM with SR leukemia and 1.52 µM in the experiment on UO-31 renal. In addition, the TGI was 4.17 µM in the experiment with A549 NSCLC; 18.1 µM with BT-549 breast; 4.26 µM in the experiment with CCRF-CEM leukemia; 3.45 µM in the experiment with MDA-MB-231 breast; 4.01 µM in the experiment on OVCAR-3 ovarian; 3.75 µM in the experiment with SF-268 CNS. For the same compound, the TGI in the experiment on SK-MEL-5 melanoma came to 3.23 µM; in the experiment on SNB-19 CNS, 5.18 µM; in the experiment with SR leukemia it was 5.09 µM; with UO-31 renal it was 2.94 µM.

In the case of `CCCCCCCCCCCCC(O)C1CCC(C(O)CCCCC(O)CCCCCC2CC(CC(C)=O)C(=O)O2)O1` (stereo unspecified), the GI50 with A549 NSCLC was 1.55 µM; in the experiment on OVCAR-3 ovarian it was 1.37 µM; in the experiment with SF-268 CNS, 1.37 µM; with SK-MEL-5 melanoma, 0.112 µM; in the experiment on SR leukemia, 2.8 µM; in the experiment on UO-31 renal, 1.06 µM. The TGI in the experiment with A549 NSCLC is 18.7 µM; in the experiment with BT-549 breast, 5.6 µM; in the experiment on CCRF-CEM leukemia, 5.6 µM and 8.12 µM; with MDA-MB-231 breast, 7.38 µM; in the experiment with OVCAR-3 ovarian it was 2.65 µM and 7.59 µM; with SF-268 CNS it was 4.45 µM and 17.1 µM. The TGI with SK-MEL-5 melanoma was 2.11 µM and 5.09 µM; in the experiment on SNB-19 CNS it was 15.3 µM; with SR leukemia, 6.93 µM and 25.5 µM; with UO-31 renal it was 3.81 µM and 14 µM.

In the case of `COc1ccccc1CNCCCN1C(=O)c2ccc3c4c(ccc(c24)C1=O)C(=O)N(CCCNCCCCNCCCN)C3=O`, the GI50 in the experiment with A549 NSCLC was 0.581 µM; in the experiment on BT-549 breast, 1.7 µM; with CCRF-CEM leukemia, 0.425 µM; in the experiment on MDA-MB-231 breast, 0.431 µM; with OVCAR-3 ovarian, 0.261 µM; in the experiment on SF-268 CNS it was 0.333 µM. Also, the GI50 in the experiment on SK-MEL-5 melanoma is 0.159 µM; with SNB-19 CNS, 0.574 µM; in the experiment on SR leukemia, 0.322 µM; in the experiment with UO-31 renal, 2.66 µM. Also, the TGI with A549 NSCLC came to 2.72 µM; in the experiment on BT-549 breast, 3.57 µM; with CCRF-CEM leukemia, 19.9 µM; in the experiment with MDA-MB-231 breast, 10.5 µM; in the experiment on OVCAR-3 ovarian, 0.699 µM; in the experiment on SF-268 CNS, 3.61 µM. The TGI is 0.302 µM in the experiment with SK-MEL-5 melanoma, 3.97 µM in the experiment with SNB-19 CNS, greater than 23.2 µM with SR leukemia and 16.2 µM in the experiment on UO-31 renal.

Consider `COc1cc(/C=C2\CCC/C(=C\c3cc(CN4CCCC4)c(O)c(OC)c3)C2=O)cc(CN2CCCC2)c1O`, for which the GI50 was 3.5 µM with A549 NSCLC; 4.79 µM in the experiment on BT-549 breast; 2.71 µM in the experiment with CCRF-CEM leukemia; 3.81 µM in the experiment with MDA-MB-231 breast; 3.89 µM with OVCAR-3 ovarian; 4.53 µM with SF-268 CNS. The GI50 in the experiment on SK-MEL-5 melanoma is 4.12 µM; in the experiment with SNB-19 CNS, 8.21 µM; in the experiment on SR leukemia, 2.56 µM; in the experiment on UO-31 renal, 10.1 µM. The TGI in the experiment on A549 NSCLC worked out at 12.8 µM; in the experiment with BT-549 breast, 17.8 µM; with CCRF-CEM leukemia it was 8.37 µM; in the experiment on MDA-MB-231 breast, 12.8 µM; with OVCAR-3 ovarian it was 13.8 µM; in the experiment on SF-268 CNS it was 16.3 µM. Moreover, the TGI with SK-MEL-5 melanoma was determined as 15.5 µM; with SNB-19 CNS it was 20.8 µM; in the experiment with SR leukemia it was 11.8 µM; in the experiment with UO-31 renal it was 21.7 µM.

Regarding `CCOc1cc(Cl)c(C(C)NC(=O)c2cccc(OC)c2)cc1OCC` (stereo unspecified), the GI50 is 8.59 µM with A549 NSCLC; 13.4 µM with BT-549 breast; 11.7 µM with CCRF-CEM leukemia; 11.1 µM in the experiment on MDA-MB-231 breast; 4.19 µM with OVCAR-3 ovarian; 23.6 µM in the experiment on SF-268 CNS. In addition, the GI50 in the experiment with SK-MEL-5 melanoma was 7.39 µM; in the experiment on SNB-19 CNS it was 12.6 µM; in the experiment with SR leukemia, 3.92 µM; with UO-31 renal, 13.9 µM. The TGI is greater than 100 µM with A549 NSCLC; greater than 100 µM with BT-549 breast; greater than 100 µM in the experiment with CCRF-CEM leukemia; greater than 100 µM in the experiment on MDA-MB-231 breast; 29.4 µM in the experiment with OVCAR-3 ovarian; greater than 100 µM with SF-268 CNS. Also, the TGI is 24.6 µM in the experiment with SK-MEL-5 melanoma, greater than 100 µM in the experiment with SNB-19 CNS, greater than 100 µM in the experiment with SR leukemia and greater than 100 µM with UO-31 renal.

Regarding `CCOC(=O)C#Cc1cccc(C#CC(=O)OCC)c1`, the TGI is 16.6 µM with A549 NSCLC; 5.1 µM with BT-549 breast; 6.34 µM in the experiment with CCRF-CEM leukemia; 11.2 µM in the experiment on MDA-MB-231 breast; 13.4 µM in the experiment with OVCAR-3 ovarian; 16.7 µM with SF-268 CNS. Moreover, the TGI was found to be 8.29 µM with SK-MEL-5 melanoma, 11.4 µM in the experiment with SNB-19 CNS, 3.25 µM in the experiment on SR leukemia and 10.1 µM in the experiment on UO-31 renal.

Consider `CCN1CCN(Cc2ccc(NC(=O)Nc3nc(-c4cc(OC)c(OC)c(OC)c4)cs3)cc2C(F)(F)F)CC1`, for which the GI50 is 1.96 µM in the experiment on A549 NSCLC; 1.91 µM with BT-549 breast; 1.87 µM in the experiment with CCRF-CEM leukemia; 1.6 µM with MDA-MB-231 breast; 2.28 µM with OVCAR-3 ovarian; 1.87 µM with SF-268 CNS. Besides, the GI50 with SK-MEL-5 melanoma is 1.67 µM; in the experiment on SNB-19 CNS, 1.75 µM; in the experiment on SR leukemia, 1.2 µM; in the experiment with UO-31 renal it was 1.36 µM. Moreover, the TGI was found to be 4.45 µM in the experiment with A549 NSCLC; 4.58 µM in the experiment with BT-549 breast; 6.07 µM with CCRF-CEM leukemia; 3.46 µM with MDA-MB-231 breast; 6.89 µM with OVCAR-3 ovarian; 5.76 µM with SF-268 CNS. Further, the TGI was determined as 3.04 µM in the experiment on SK-MEL-5 melanoma, 3.43 µM in the experiment with SNB-19 CNS, 3.08 µM in the experiment with SR leukemia and 3.78 µM in the experiment with UO-31 renal.
